In patent US11026426B2, “Oxadiazole and phenol derivatives as antibacterial and/or herbicidal agents” (NORTHERN ILLINOIS RESEARCH FOUNDATION, priority 2017, dated 2021):
Read-outs that look alike come from different tables or passages of the source.

Key:
[1] = tested on: Klebsiella pneumonia; assay: Antibacterial assay zone of inhibition Kp; format: cell-based
[2] = tested on: Mycobacterium smegmatis; assay: Antibacterial assay zone of inhibition Ms; format: cell-based
[3] = tested on: Burkholderia thailandensis; format: cell-based
[4] = tested on: Bacillus cereus; assay: Antibacterial assay zone of inhibition Bc; format: cell-based
[5] = tested on: Micrococcus luteus; assay: Antibacterial assay zone of inhibition Ml; format: cell-based
[6] = tested on: Pseudomonas aeruginosa; assay: Antibacterial assay zone of inhibition Pa; format: cell-based
[7] = tested on: Corynebacterium xerosis; assay: Antibacterial assay zone of inhibition Cx; format: cell-based
[8] = tested on: Corynebacterium pseudodiphtheriae; assay: Antibacterial assay zone of inhibition Cp; format: cell-based
[9] = tested on: Escherichia coli; assay: Antibacterial assay zone of inhibition Ec; format: cell-based
[10] = biological target: T1, Mycobacterium tuberculosis IspD (MtIspD) (Mycobacterium tuberculosis, UniProt P9WKG9); assay: Thermal shift assay against MtIspD; format: binding
T1 sequence (P9WKG9 1-231): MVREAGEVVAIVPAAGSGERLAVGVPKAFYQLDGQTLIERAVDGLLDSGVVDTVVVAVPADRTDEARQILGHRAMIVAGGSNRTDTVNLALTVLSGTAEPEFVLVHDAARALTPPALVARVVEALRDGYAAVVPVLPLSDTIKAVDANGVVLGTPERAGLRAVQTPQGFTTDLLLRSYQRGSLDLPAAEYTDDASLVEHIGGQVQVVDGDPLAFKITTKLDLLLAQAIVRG

[11] = tested on: Bacillus cereus; assay: Antibacterial preliminary screening BC; format: cell-based; conditions: score 0-3; further: key: 0 represents no inhibition; 3 is comparable to commercial antibiotic control
[12] = biological target: LeIspE (Solanum lycopersicum, UniProt P93841); assay: University of Hamburg photometric enzymatic inhibition assay LeIspE; format: biochemical, Lycopersicon esculentum; conditions: read-out: LeIspE IC50
Procedure: (§1) Compounds were subjected to a photometric enzymatic assay to test for inhibition of the plant enzymes Arabidopsis thaliana IspD and IspF, and IspE from Lycopersicon esculentum.
The IspE assay conditions were very similar to the IspD assay in which the assay mixture was composed of 100 mM Tris hydrochloride at pH 8.0 with 10 mM MgCl2, 1 mM dithiothreitol, 2.5 mM potassium phosphoenol pyruvate, 2 mM ATP, 1 mM of 4-Diphosphocytidyl-2-C-methylerythritol, 460 μM NADH, 1.1% (v/v) DMSO, 2.4 mU IspE, 1 U lactate dehydrogenase, 1 U pyruvate kinase in 180 μL of solution. Solutions were incubated at 27° C. and monitored photometrically.

[13] = tested on: Pseudomonas aeruginosa; assay: Antibacterial preliminary screening PA; format: cell-based; conditions: score 0-3; further: key: 0 represents no inhibition; 3 is comparable to commercial antibiotic control
[14] = biological target: AtIspF (Arabidopsis thaliana, UniProt Q9CAK8); assay: University of Hamburg photometric enzymatic inhibition assay AtIspF; format: biochemical; conditions: read-out: AtIspF IC50
Procedure: as §1
The IspF assay mixture conditions were as follows: 100 mM Tris hydrochloride at pH 8.0 with 10 mM MgCl2, 1 mM dithiothreitol, 2.5 mM potassium phosphoenol pyruvate, 2 mM ATP, 1 mM of 4-diphosphocytidyl-2C methylerythritol 2-phosphate, 460 μM NADH, 1.1% (v/v) DMSO, 0.5 U CMP kinase, 2.4 mU IspF, 1 U lactate dehydrogenase, 1 U pyruvate kinase in 180 μL of solution. Solutions were incubated at 27° C. and monitored photometrically.

[15] = biological target: AtIspD (Arabidopsis thaliana, UniProt P69834); assay: University of Hamburg photometric enzymatic inhibition assay AtIspD; format: biochemical; conditions: read-out: AtIspD IC50
Procedure: as §1
The procedure for AtIspD enzymatic inhibition assay, was performed by making an assay mixture of 100 mM Tris hydrochloride at pH 8.0 with 10 mM MgCl2, 1 mM dithiothreitol, 2.5 mM potassium phosphoenol pyruvate, 2.1 mM CTP, 2 mM ATP, 1 mM of (2R,3S)-2,3-dihydroxy-4-oxopentyl phosphate, 460 μM NADH, 1.1% (v/v) DMSO, 0.4 U IspE, 1 U lactate dehydrogenase, 1 U pyruvate kinase and 2.4 mU IspD in 180 μL of solution. Solutions were incubated at 27° C. and monitored photometrically. By preparing the assay mixture with a large excess of IspE compared to IspD, any inhibition of IspE by the test inhibitor would be insignificant compared to IspD and therefore the rate of the reaction is determined by IspD activity.

[16] = tested on: Klebsiella pneumonia; assay: Antibacterial preliminary screening KP; format: cell-based; conditions: score 0-3; further: key: 0 represents no inhibition; 3 is comparable to commercial antibiotic control
[17] = tested on: Corynebacterium xerosis; assay: Antibacterial preliminary screening CX; format: cell-based; conditions: score 0-3; further: key: 0 represents no inhibition; 3 is comparable to commercial antibiotic control
[18] = tested on: Escherichia coli; assay: Antibacterial preliminary screening EC; format: cell-based; conditions: score 0-3
[19] = tested on: lettuce seeds; assay: Lettuce leaf assay; format: in vivo; set-up: key: 0 (no effect); 5(complete inhibition or bleaching); conditions: ranking 0-5
Source text: The lettuce leaf assay is a qualitative assay used to determine the relative effectiveness of the test compounds at inhibition of germination of seeds and root development as well as causing bleaching of leaves. Isoprenoid synthesis is vital in plants as isoprene-product gibberellins are a class of growth hormones in plants responsible for stimulating cell elongation and division. In addition, some carotenoids are involved in photosynthesis as components of the electron transport chain. MEP pathway inhibitors have the potential to prevent synthesis of these necessary cellular components and growth hormones resulting in inhibition of germination and root development as well as causing chlorosis, or bleaching in the leaves. The lettuce leaf assay, explores the effects of compounds as potential MEP pathway inhibitors by evaluating the effect on bleaching, root development, and germination of lettuce seeds, which all rely on isoprenoid biosynthesis. […] The assay is a qualitative assay and the effects are given rankings from 0 (no effect) to 5 (complete inhibition or bleaching). In this assay, compounds are dissolved in a volatile organic solvent and applied to filter paper in a petri dish. The solvent is allowed to evaporate and lettuce seeds are applied followed by the addition of 5 mL of water to obtain the necessary concentrations. Seeds are allowed to grow and they are observed on day 3 and day 4 for evaluation.

[20] = tested on: Mycobacterium smegmatis; assay: Antibacterial preliminary screening MS; format: cell-based; conditions: score 0-3
[21] = tested on: Micrococcus luteus; assay: Antibacterial preliminary screening ML; format: cell-based; conditions: score 0-3
[22] = tested on: Burkholderia thailandensis; format: cell-based; conditions: preliminary screening, score 0-3
[23] = tested on: Corynebacterium pseudodiphtheriae; assay: Antibacterial preliminary screening CP; format: cell-based; conditions: score 0-3;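 further: 0 is no inhibition and 3 matches the commercial antibiotic control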
[24] = biological target: Lycopersicon esculentum IspE (LeIspE) (Solanum lycopersicum, UniProt P93841); assay: Thermal shift assay against LeIspE; format: binding
Chain of Lycopersicon esculentum IspE (LeIspE) (P93841 89-401): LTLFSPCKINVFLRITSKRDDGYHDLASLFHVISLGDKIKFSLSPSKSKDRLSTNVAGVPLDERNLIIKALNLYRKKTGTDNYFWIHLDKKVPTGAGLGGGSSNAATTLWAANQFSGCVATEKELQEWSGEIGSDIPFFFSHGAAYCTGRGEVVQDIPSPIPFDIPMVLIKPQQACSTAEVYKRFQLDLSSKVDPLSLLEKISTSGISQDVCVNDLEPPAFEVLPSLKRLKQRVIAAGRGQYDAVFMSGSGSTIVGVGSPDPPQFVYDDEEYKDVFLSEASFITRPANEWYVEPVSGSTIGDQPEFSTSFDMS

Chain of AtIspD (P69834 62-302): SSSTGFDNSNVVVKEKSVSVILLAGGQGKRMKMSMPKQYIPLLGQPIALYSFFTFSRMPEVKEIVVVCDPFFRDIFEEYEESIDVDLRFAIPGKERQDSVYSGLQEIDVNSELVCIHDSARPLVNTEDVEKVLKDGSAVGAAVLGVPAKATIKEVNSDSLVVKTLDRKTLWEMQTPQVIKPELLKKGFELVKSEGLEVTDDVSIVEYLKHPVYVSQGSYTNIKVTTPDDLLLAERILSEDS
Chain of AtIspF (Q9CAK8 53-231): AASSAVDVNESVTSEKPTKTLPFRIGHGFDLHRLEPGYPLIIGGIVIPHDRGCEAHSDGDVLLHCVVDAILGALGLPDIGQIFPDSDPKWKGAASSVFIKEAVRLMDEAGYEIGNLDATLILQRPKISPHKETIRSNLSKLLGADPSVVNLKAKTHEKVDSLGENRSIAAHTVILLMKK
Chain of LeIspE (P93841 89-401): as the sequence (P93841 89-401) above

Clc1ccc(OCc2nnc(-c3nc4ccccc4s3)o2)cc1Cl [HGN-834]
0 millimeters: Antibacterial Kp zone of inhibition ([1]; 0.1 mM) | Antibacterial Kp zone of inhibition ([1]; 0.5 mM) | Antibacterial Kp zone of inhibition ([1]; 1 mM) | Antibacterial Ms zone of inhibition ([2]; 0.1 mM) | Antibacterial Ms zone of inhibition ([2]; 0.5 mM) | Antibacterial Ms zone of inhibition ([2]; 1 mM) | Antibacterial Bt zone of inhibition ([3]; 0.1 mM) | Antibacterial Bt zone of inhibition ([3]; 0.5 mM) | Antibacterial Bt zone of inhibition ([3]; 1 mM) | Antibacterial Bc zone of inhibition ([4]; 0.1 mM) | Antibacterial Ml zone of inhibition ([5]; 0.1 mM) | Antibacterial Ml zone of inhibition ([5]; 0.5 mM) | Antibacterial Ml zone of inhibition ([5]; 1 mM) | Antibacterial Pa zone of inhibition ([6]; 0.1 mM) | Antibacterial Pa zone of inhibition ([6]; 0.5 mM) | Antibacterial Pa zone of inhibition ([6]; 1 mM) | Antibacterial Cx zone of inhibition ([7]; 0.1 mM) | Antibacterial Cx zone of inhibition ([7]; 0.5 mM) | Antibacterial Cx zone of inhibition ([7]; 1 mM) | Antibacterial Cp zone of inhibition ([8]; 0.1 mM) | Antibacterial Cp zone of inhibition ([8]; 0.5 mM) | Antibacterial Cp zone of inhibition ([8]; 1 mM) | Antibacterial Ec zone of inhibition ([9]; 0.1 mM) | Antibacterial Ec zone of inhibition ([9]; 0.5 mM) | Antibacterial Ec zone of inhibition ([9]; 1 mM)
18 millimeters: Antibacterial Bc zone of inhibition ([4]; 1 mM)
11 millimeters: Antibacterial Bc zone of inhibition ([4]; 0.5 mM)

COc1ccc(OCc2nnc(-c3nc4ccccc4s3)o2)cc1 [HGN-833]
13 millimeters: Antibacterial Ml zone of inhibition ([5]; 1 mM)
14 millimeters: Antibacterial Cp zone of inhibition ([8]; 1 mM)
0 millimeters: Antibacterial Kp zone of inhibition ([1]; 0.1 mM) | Antibacterial Kp zone of inhibition ([1]; 0.5 mM) | Antibacterial Kp zone of inhibition ([1]; 1 mM) | Antibacterial Ms zone of inhibition ([2]; 0.1 mM) | Antibacterial Ms zone of inhibition ([2]; 0.5 mM) | Antibacterial Ms zone of inhibition ([2]; 1 mM) | Antibacterial Bc zone of inhibition ([4]; 0.1 mM) | Antibacterial Ml zone of inhibition ([5]; 0.1 mM) | Antibacterial Ml zone of inhibition ([5]; 0.5 mM) | Antibacterial Pa zone of inhibition ([6]; 0.1 mM) | Antibacterial Pa zone of inhibition ([6]; 0.5 mM) | Antibacterial Pa zone of inhibition ([6]; 1 mM) | Antibacterial Cx zone of inhibition ([7]; 0.1 mM) | Antibacterial Cx zone of inhibition ([7]; 0.5 mM) | Antibacterial Cp zone of inhibition ([8]; 0.1 mM) | Antibacterial Cp zone of inhibition ([8]; 0.5 mM) | Antibacterial Ec zone of inhibition ([9]; 0.1 mM) | Antibacterial Ec zone of inhibition ([9]; 0.5 mM) | Antibacterial Ec zone of inhibition ([9]; 1 mM)
15 millimeters: Antibacterial Bc zone of inhibition ([4]; 1 mM) | Antibacterial Cx zone of inhibition ([7]; 1 mM)
0 12 17 millimeters: Antibacterial Bt zone of inhibition ([3]; 0.1 mM) | Antibacterial Bt zone of inhibition ([3]; 0.5 mM) | Antibacterial Bt zone of inhibition ([3]; 1 mM)
10 millimeters: Antibacterial Bc zone of inhibition ([4]; 0.5 mM)

c1ccc(-c2ccc(-c3nnc(-c4cc5ccccc5[nH]4)o3)cc2)cc1 [HGN-288, 2-([1,1′-biphenyl]-4-yl)-5-(1H-indol-2-yl)-1,3,4-oxadiazole]
0: BC score [11] | PA score [13] | KP score [16] | CX score [17] | EC score [18] | Bleaching ([19]; 0.1 mM) | Germination ([19]; 0.1 mM) | Root Dev. ([19]; 0.1 mM) | Bleaching ([19]; 0.2 mM) | Germination ([19]; 0.2 mM) | Root Dev. ([19]; 0.2 mM) | MS score [20] | ML score [21] | BT score [22] | CP score [23]
49.0 °C: MtIspD melting temp [10]
48.00 °C: LeIspE melting temp [24]
255 ± 35 µM: IC50 [15]
−1.50 °C: LeIspE melting point change [24]
1.0 °C: MtIspD melting point change [10]
> 1000 µM: IC50 [12] | IC50 [14]

COc1ccc(-c2nnc(-c3cc4ccccc4[nH]3)o2)cc1 [HGN-223, 2-(1H-indol-2-yl)-5-(4-methoxyphenyl)-1,3,4-oxadiazole]
−0.25 °C: LeIspE melting point change [24]
0: BC score [11] | PA score [13] | KP score [16] | CX score [17] | EC score [18] | Bleaching ([19]; 0.5 mM) | Root Dev. ([19]; 0.5 mM) | Bleaching ([19]; 1.0 mM) | Root Dev. ([19]; 1.0 mM) | MS score [20] | ML score [21] | BT score [22] | CP score [23]
> 1000 µM: IC50 [14]
126 ± 12 µM: IC50 [12]
1: Germination ([19]; 0.5 mM)
49.25 °C: LeIspE melting temp [24]
0.0 °C: MtIspD melting point change [10]
4: Germination ([19]; 1.0 mM)
48.0 °C: MtIspD melting temp [10]
209 ± 29 µM: IC50 [15]

c1ccc(-c2cccc(-c3nnc(-c4cc5ccccc5[nH]4)o3)c2)cc1 [HGN-287, 2-([1,1′-biphenyl]-3-yl)-5-(1H-indol-2-yl)-1,3,4-oxadiazole]
0.5 °C: MtIspD melting point change [10]
49.25 °C: LeIspE melting temp [24]
501 ± 82 µM: IC50 [15]
−0.25 °C: LeIspE melting point change [24]
> 1000 µM: IC50 [12] | IC50 [14]
48.5 °C: MtIspD melting temp [10]
0: BC score [11] | PA score [13] | KP score [16] | CX score [17] | EC score [18] | Bleaching ([19]; 0.15 mM) | Germination ([19]; 0.15 mM) | Root Dev. ([19]; 0.15 mM) | Bleaching ([19]; 0.3 mM) | Germination ([19]; 0.3 mM) | Root Dev. ([19]; 0.3 mM) | MS score [20] | ML score [21] | BT score [22] | CP score [23]
